From the NIST ThermoML archive (doi:10.1021/acs.jced.6b00949)
± gives the expanded uncertainty stated by the source.

Columns and labels:
[1] = 293.15 K; 101.3 kPa; Liquid; Vibrating tube method
[2] = refractive index (Na D-line) (dimensionless); conditions: 293.15 K; 101.33 kPa; Liquid; Standard Abbe refractometry

mass density [1]	refractive index [2]	Structure (SMILES)
792.1 ± 1.6 kg/m3	1.3285 ± 0.0025	CO [methanol]
873.4 ± 1.6 kg/m3	1.3902 ± 0.0025	CC(=O)OCC(C)C [2-methylpropyl ethanoate]
789.2 ± 1.6 kg/m3	1.3616 ± 0.0025	CCO [ethanol]
